# In patent US11987555B2, “Malassezin and analogs thereof as skin brightening agents” (Versicolor Technologies, LLC, priority 2016, dated 2024):
# Like-named read-outs stand apart in the source and are kept apart here.
# Key:
# [1] = CellTiter-Glo cell viability assay; type: cell-based; conditions: human, after 24-hour treatment, read-out: inhibition of cell viability
# Description: (§1) CellTiter-Glo® 2.0 assay was purchased from Promega.
# (§2) CellTiter-Glo® reagents were thawed and equilibrated to room temperature before the experiment. 40 μL of CellTiter-Glo® reagent was then added to each well for detection (at 1:1 ratio to culture medium). The plates were then incubated at room temperature for 30 minutes and read using EnSpire (PerkinElmer) plate reader. The remaining activity was calculated according to the following formula: Remaining Activity (%)=100%×(Lumsample−Lumbkg)/(Lumvehicle−Lumbkg).
# MeWo cells [2] = assay: Cell morphology after treatment (micrographs); type: cell-based; conditions: 100 μM of test compound, 6 hours
# Description: FIGS. 5A-5K are micrographs showing MeWo cell morphology after 6 hours of treatment with various concentrations of CV-8684, CV-8685, CV-8688, DMSO, and staurosporine.
# (§3) Typical cell morphology after various treatments is shown in FIGS. 5A-5K, 6A-6K, 7A-7K, 8A-8K, 9A-9K, 10A-10K, 11A-11K, and 12A-12K.
# WM115 cells [3] = assay: Cell morphology after treatment (micrographs); type: cell-based; conditions: 100 μM of test compound, 6 hours
# Description: FIGS. 9A-9K are micrographs showing WM115 cell morphology after 6 hours of treatment with various concentrations of CV-8684, CV-8685, CV-8688, DMSO, and staurosporine.
# as §3
# MeWo cells [4] = assay: Preliminary annexin V assay; type: cell-based; conditions: 6-hour treatment, preliminary screen
# Text: (§4) MeWo (ATCC® HTB-65™) and WM115 (ATCC® CRL-1675) cells were purchased from ATCC (Manassas, VA) and maintained in the following: for MeWo: DMEM supplemented with 10% FBS; for WM115: RPMI 1640 supplemented with 10% FBS (10% FBS, 1% stabilized antibiotic anti-mycotic solution).
# (§5) In the […] stages of apoptosis, phosphatidylserine (“PS”) is translocated from the inner to the outer leaflet of the cell membrane, exposing PS to the extracellular environment, where it can be detected. Highly fluorescent annexin V conjugates provide quick and reliable detection methods for studying the externalization of PS.
# (§6) During the first set of studies, both MeWo and WM115 cells were treated with test compounds at 10 doses starting from 100 μM with 3-fold dilution. Staurosporine was used as positive control. After 6-hour treatment, cell apoptosis was assessed using an annexin V assay. The test compounds evaluated were CV-8684, CV-8685, CV-8686, CV-8687, and CV-8688.
# (§7) For cell seeding, cells were harvested and the cell number was determined using Countess® cell counter. Cells were then diluted with culture medium to the desired density. 40 μL of cell suspension per well was added to the required number of wells in a 384-well plate (Corning 3712—clear bottom plate). The final cell density was 6,000 cells/well. After plating, the plates were incubated at 37° C. and 5% CO2 overnight.
# (§8) For preparation of compound source plate, each test compound was dissolved in DMSO to 10 mM stock. 3-fold serial dilution was performed using an EVO200™ liquid handler (TECAN) to generate ten concentrations of test compound. 0.1% DMSO was employed as vehicle (negative) control. The compound source plate was then spun at room temperature at 1,000 RPM for 1 minute and agitated using a plate shaker for 2 minutes.
# (§9) For compound treatment, 40 nL of compound were transferred from the compound source plate to the 384-well culture plate using liquid handler Echo550 (LabCyte Inc.). After 6-hour incubation, the plates were removed from the incubator for detection.
# (§10) For the preliminary annexin V assay, the plates were removed from the incubator and allowed to equilibrate at room temperature for 15 minutes. Culture media was then removed. 20 μL of pre-mixed annexin V-FITC and Hoechst33342 dye working solution were added to each well. The cells were then incubated at room temperature for 20 minutes. The plates were sealed and centrifuged for 1 minute at 1,000 RPM to remove bubbles. Afterward, the plate was read using an Acumen eX3 plate reader.
# WM115 cells [5] = assay: Preliminary annexin V assay; type: cell-based; conditions: 6-hour treatment, preliminary screen
# Text: as §4, §5, §6, §7, §8, §9, §10
# MeWo cells [6] = assay: CellTiter-Glo cell viability assay; type: cell-based; conditions: doses 100, 10, 1 μM, 6-72 hours
# Description: as §1, §2
# WM115 cells [7] = assay: CellTiter-Glo cell viability assay; type: cell-based; conditions: doses 100, 10, 1 μM, 6-72 hours
# Description: as §1, §2
# MeWo cells [8] = assay: Additional annexin V assay (3 doses, 6-72 hours); type: cell-based; conditions: 6 hours, doses 100, 10, 1 μM
# Description: (§11) To further investigate the impact of test compounds on apoptosis, multiple readouts, covering different stages of apoptosis, were carried out on both MeWo and WM115 cells. Both cell types were treated with test compounds at 3 doses (100 μM, 10 μM, and 1 μM). Staurosporine was used as a positive control. […] The test compounds evaluated were CV-8684, CV-8685, and CV-8688.
# (§12) Cell seeding was performed as discussed above with the following exceptions: the final cell density was 4,000 cells/well for 6-hour and 24-hour detections, whereas 2,000 cells/well were used for 48-hour and 72-hour detections. For each time point, 384-well clear bottom plates (Corning 3712) and solid white bottom plates (Corning 3570) were prepared. The plates were incubated as discussed above.
# (§13) For preparation of the compound source plate, each test compound was dissolved in DMSO to 10 mM stock. Two additional concentrations were generations by 10-fold dilution to 1 mM and 0.1 mM. Staurosporine was used as positive control and 1% DMSO was employed as vehicle (negative) control. The compound source plate was spun at room temperature at 1,000 RPM for 1 minute and agitated using a plate shaker for 2 minutes.
# (§14) 400 nL of test compound was transferred from the compound source plate to 384-well culture plates using Echo550 liquid handler. After 6, 24, 48, and 72 hours, the plates were removed from the incubator for detections.
# (§15) Culture media was removed and cells were washed twice with PBS. 20 μL of pre-mixed annexin V-FITC working solution was added to each well. The cells were incubated at room temperature for 20 minutes. Plates were read using Acumen eX3 to count the number of FITC-positive cells.
# WM115 cells [9] = assay: Additional annexin V assay (3 doses, 6-72 hours); type: cell-based; conditions: 6 hours, doses 100, 10, 1 μM
# Description: as §11, §12, §13, §14, §15
# MelanoDerm™ Skin Model = assay: MelanoDerm assay, visual pigmentation; type: cell-based, human; conditions: day 7; 200 μM and 50 μM, topical every 48 hours
# Description: FIGS. 16A-16K are photographs of MelanoDerm™ matrices at either day 0 or day 7 after exposure to no treatment (FIG. 16A), sterile deionized water (FIG. 16B), 1% kojic acid (FIG. 16C), 0.2% DMSO (FIG. 16D), 0.05% DMSO (FIG. 16E), 200 μM CV-8684 (FIG. 16F), 50 μM CV-8684 (FIG. 16G), 200 μM CV-8686 (FIG. 16H), 50 μM CV-8686 (FIG. 16I), 200 μM CV-8688 (FIG. 16J), and 50 μM CV-8688 (FIG. 16K).
# The MelanoDerm™ Skin Model provided by MatTek Corporation (Ashland, MA) will be used in this study. The MelanoDerm™ tissue consists of normal, human-derived epidermal keratinocytes (NHEKs) and melanocytes (NHMs) which have been cultured to form a multilayered, highly differentiated model of the human epidermis. The NHMs within co-cultures undergo spontaneous melanogenesis leading to tissues of varying levels of pigmentation. The cultures are grown on cell culture inserts at the air-liquid interface, allowing for topical application of skin modulators. […]
# At the end of the 7-day trial, the MelanoDerm™ tissues dosed with the negative or positive control, and with each test article will be photographed using a digital camera to aid in the visual assessment of the degree of pigmentation of the tissues at the end of the assay (Day 7). […] Then, the viability of the tissues will be determined by MTT reduction as indicated below.
# [10] = system: primary human melanocytes; conditions: Krämer, et al., 2005; cited from earlier work
# [11] = target: T1, arylhydrocarbon receptor (AhR) (Homo sapiens, UniProt P35869); conditions: Wille et al., 2001; cited from earlier work
# T1 sequence (P35869 11-848): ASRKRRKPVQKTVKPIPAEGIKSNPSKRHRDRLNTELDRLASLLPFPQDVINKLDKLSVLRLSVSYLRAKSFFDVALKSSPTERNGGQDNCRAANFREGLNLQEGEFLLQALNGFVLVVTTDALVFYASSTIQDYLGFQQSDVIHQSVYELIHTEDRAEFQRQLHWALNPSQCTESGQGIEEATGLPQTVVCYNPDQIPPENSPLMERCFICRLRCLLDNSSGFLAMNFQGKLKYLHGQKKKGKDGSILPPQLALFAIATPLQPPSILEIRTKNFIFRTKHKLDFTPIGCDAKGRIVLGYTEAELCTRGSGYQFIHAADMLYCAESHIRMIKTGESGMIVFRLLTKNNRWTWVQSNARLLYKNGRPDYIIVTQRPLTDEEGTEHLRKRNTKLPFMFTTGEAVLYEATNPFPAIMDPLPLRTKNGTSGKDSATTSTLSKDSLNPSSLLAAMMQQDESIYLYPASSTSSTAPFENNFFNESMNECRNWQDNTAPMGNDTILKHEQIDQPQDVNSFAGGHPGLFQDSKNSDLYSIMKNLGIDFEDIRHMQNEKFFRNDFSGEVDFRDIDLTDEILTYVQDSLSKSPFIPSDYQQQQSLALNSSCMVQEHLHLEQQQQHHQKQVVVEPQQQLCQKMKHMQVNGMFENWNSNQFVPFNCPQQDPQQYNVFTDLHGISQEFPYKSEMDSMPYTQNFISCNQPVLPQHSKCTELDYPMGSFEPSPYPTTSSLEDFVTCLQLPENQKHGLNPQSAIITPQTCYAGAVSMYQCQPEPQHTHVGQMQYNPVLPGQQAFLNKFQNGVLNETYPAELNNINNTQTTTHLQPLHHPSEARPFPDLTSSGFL
# WM115 cells [12] = assay: Lactate dehydrogenase (LDH) release assay; conditions: after 72-hour incubation
# Description: (§16) The LDH assay quantitatively measures lactate dehydrogenase (“LDH”) released into the media from damaged cells as a biomarker for cytotoxicity and cytolysis.
# (§17) CytoTox-ONE™ Homogenous Membrane Integrity Assay was purchased from Promega.
# (§18) For the LDH release assay, plates were removed from the incubator and equilibrated at room temperature for 15 minutes. Plates were then centrifuged at 1,000 RPM for 1 minute. 20 μL of cell culture medium was transferred into a new 384-well black solid plate. Then, 20 μL of CytoTOX-ONE™was added into each well and incubated at room temperature for 10 minutes. Afterward, 10 μL of stop solution were added to each well, and the plates were agitated at 500 rpm for 1 minute. Plates were read using an excitation wavelength of 560 nm and an emission wavelength of 590 nm on EnSpire. The relative activity was calculated according to the following formula: Relative Activity (%)=100%×(Lumsample−Lumbkg)/(Lumvehicle−Lumbkg).
# MeWo cells [13] = assay: Lactate dehydrogenase (LDH) release assay; conditions: after 72-hour incubation
# Description: as §16, §17, §18
compound,measurement,setting,value
"CN[C@@H]1C[C@H]2O[C@@](C)([C@@H]1OC)n1c3ccccc3c3c4c(c5c6ccccc6n2c5c31)C(=O)NC4 [Staurosporine, reference compound]",cytotoxicity at 24 h,[1]; MeWo,100%
same,cytotoxicity at 24 h,[1]; WM115,100%
same,cell morphology,MeWo cells [2],significantly affected
same,cell morphology,WM115 cells [3],significantly affected
same,annexin V staining,MeWo cells [4],greatly increased
same,annexin V staining,WM115 cells [5],greatly increased
CC(c1[nH]c2ccccc2c1C=O)c1c[nH]c2ccccc12 (centres unmarked) [CV-8688],inhibition of cell viability,MeWo cells [6],inhibited viability of both cell types in a dose-dependent manner
same,inhibition of cell viability,WM115 cells [7],inhibited viability of both cell types in a dose-dependent manner
same,apoptosis induction (annexin V),MeWo cells [8],showed the induction effect within 6 hours of treatment in a dose-dependent manner
same,apoptosis induction (annexin V),WM115 cells [9],showed the induction effect within 6 hours of treatment in a dose-dependent manner
same,cell morphology,MeWo cells [2],significantly affected
same,cell morphology,WM115 cells [3],significantly affected
same,pigmentation of MelanoDerm tissues,MelanoDerm™ Skin Model,reduced pigmentation
same,annexin V staining,MeWo cells [4],markedly increased
same,EC50,MeWo cells [4]; read-out: EC50 of annexin V staining,909 nM
"O=Cc1c(Cc2c[nH]c3ccccc23)[nH]c2ccccc12 [CV-8684, 2-(1H-indol-3-ylmethyl)-1H-indole-3-carbaldehyde]",inhibition of cell viability,MeWo cells [6],dose-dependent inhibition of cell viability
same,inhibition of cell viability,WM115 cells [7],dose-dependent inhibition of cell viability
same,apoptosis induction,[10],induces apoptosis
same,apoptosis induction (annexin V),MeWo cells [8],induced apoptosis at the highest concentration tested
same,apoptosis induction (annexin V),WM115 cells [9],induced apoptosis at the highest concentration tested
same,cell morphology,MeWo cells [2],significantly affected
same,AhR agonist activity,[11],known agonist
same,cell morphology,WM115 cells [3],significantly affected
same,LDH release,WM115 cells [12],did not induce significant release
same,LDH release,MeWo cells [13],did not induce significant release
same,pigmentation of MelanoDerm tissues,MelanoDerm™ Skin Model,reduced pigmentation
